Measurements reported in ChEMBL document CHEMBL5360520, “Catalytic covalent inhibition of cyclooxygenase-1 by a biomimetic acyltransferase” (Bioorg Med Chem, 2022).
Active and inactive are the calls of the source. The rule behind the calls is not given here.

Columns and labels:
[1] = target: T1, Prostaglandin G/H synthase 1 (Ovis aries) (UniProt P05979); test: Covalent inhibition of recombinant ovine COX-1 using arachidonic acid as substrate assessed as reduction in PGE2 production preincubated with compound followed by substrate addition and measured after 10 mins by LC-MS/MS analysis; settings: time 70-310 min, TDE = time-dependent effect
T1 sequence (whole entry): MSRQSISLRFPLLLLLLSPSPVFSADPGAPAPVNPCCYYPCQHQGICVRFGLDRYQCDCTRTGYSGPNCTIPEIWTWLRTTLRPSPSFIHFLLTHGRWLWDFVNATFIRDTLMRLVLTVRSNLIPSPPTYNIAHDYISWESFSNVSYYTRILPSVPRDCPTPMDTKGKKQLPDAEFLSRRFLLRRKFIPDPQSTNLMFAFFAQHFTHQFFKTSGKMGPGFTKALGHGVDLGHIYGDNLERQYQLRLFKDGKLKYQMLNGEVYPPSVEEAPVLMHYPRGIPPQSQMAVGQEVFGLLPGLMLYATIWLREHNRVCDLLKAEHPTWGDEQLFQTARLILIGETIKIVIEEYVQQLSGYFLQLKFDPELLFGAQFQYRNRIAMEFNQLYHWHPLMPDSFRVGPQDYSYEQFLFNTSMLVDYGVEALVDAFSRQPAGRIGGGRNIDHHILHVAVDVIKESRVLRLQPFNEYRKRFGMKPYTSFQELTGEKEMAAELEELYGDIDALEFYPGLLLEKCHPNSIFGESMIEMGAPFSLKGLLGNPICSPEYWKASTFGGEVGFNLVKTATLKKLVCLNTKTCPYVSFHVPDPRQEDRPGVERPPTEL

[2] = target: T2, Prostaglandin G/H synthase 1 (Ovis aries, UniProt P05979); test: Non-covalent binding affinity to recombinant ovine COX1 using arachidonic acid as substrate assessed as binding constant preincubated with compound for 10 to 40 mins followed by substrate addition and measured after 10 mins by LC-MS/MS analysis
T2 sequence (P05979 whole entry): T1 sequence (whole entry)

[3] = target: T1, Prostaglandin G/H synthase 1 (Ovis aries); test: Covalent inhibition of recombinant ovine COX1 using arachidonic acid as substrate assessed as inhibition rate preincubated with compound for 10 to 40 mins followed by substrate addition and measured after 10 mins by LC-MS/MS analysis; settings: time 20-50 min
[4] = target: T1, Prostaglandin G/H synthase 1 (Ovis aries); test: Inhibition of recombinant ovine COX1 using arachidonic acid as substrate assessed as Kinact/Ki ratio preincubated with compound for 10 to 40 mins followed by substrate addition and measured after 10 mins by LC-MS/MS analysis; settings: time 20-50 min
[5] = target: T2, Prostaglandin G/H synthase 1; test: Covalent inhibition of recombinant ovine COX-1 using arachidonic acid as substrate assessed as reduction in PGE2 production preincubated with compound for 1 hrs followed by substrate addition and measured after 10 mins by LC-MS/MS analysis
[6] = target: T2, Prostaglandin G/H synthase 1; test: Covalent inhibition of recombinant ovine COX-1 using arachidonic acid as substrate assessed as reduction in PGE2 production preincubated with compound for 5 hrs followed by substrate addition and measured after 10 mins by LC-MS/MS analysis
[7] = target: T1, Prostaglandin G/H synthase 1 (Ovis aries); test: Covalent inhibition of recombinant ovine COX1 using arachidonic acid as substrate assessed as acetylation at Ser530 residues preincubated with compound followed by substrate addition and measured after 10 mins by LC-MS/MS analysis
[8] = target: Prostaglandin G/H synthase 1 (Homo sapiens) (UniProt P23219); test: Covalent inhibition of COX1 in LPS-treated human A549 cells using arachidonic acid as substrate assessed as reduction in PGE2 production at 40 uM measured every 24 hrs by LC-MS/MS analysis; settings: time <= 48.0 hrs, TDE = time-dependent effect
[9] = target: Prostaglandin G/H synthase 1 (Homo sapiens) (UniProt P23219); test: Covalent inhibition of COX1 in LPS-treated human A549 cells using arachidonic acid as substrate assessed as reduction in PGE2 production at 40 uM preincubated with compound for 12 hrs followed by washout and measured after 20 mins of substrate addition by LC-MS/MS analysis
A549 = test: Cytotoxicity against human A549 cells assessed as reduction in cell viability at 15 uM by MTT assay; format: toxicity, cell-based; settings: a549, 15 µM
[10] = target: T1, Prostaglandin G/H synthase 1 (Ovis aries); test: Covalent inhibition of recombinant ovine COX1 using arachidonic acid as substrate assessed as reduction in PGE2 production at 10 uM preincubated with compound for 16 hrs followed by substrate addition for 10 mins in the presence of AcSNAC and measured after 16 hrs of dialysis by LC-MS/MS analysis; settings: time 970.0 min
[11] = target: Prostaglandin G/H synthase 1 (Homo sapiens) (UniProt P23219); test: Covalent inhibition of COX1 in LPS-treated human A549 cells using arachidonic acid as substrate assessed as reduction in PGE2 production at 15 uM preincubated with compound for 24 hrs followed by washout and measured after 20 mins of substrate addition by LC-MS/MS analysis
[12] = target: T1, Prostaglandin G/H synthase 1 (Ovis aries); test: Covalent inhibition of recombinant ovine COX1 using arachidonic acid as substrate assessed as reduction in PGE2 production preincubated with compound followed by substrate addition and measured after 10 mins by LC-MS/MS analysis relative to control
[13] = target: T1, Prostaglandin G/H synthase 1 (Ovis aries); test: Covalent inhibition of recombinant ovine COX1 using arachidonic acid as substrate assessed as residual activity preincubated with compound for 6 hrs followed by substrate addition for 10 mins and measured after 8 hrs of dialysis by LC-MS/MS analysis relative to control; settings: time 370.0 min
[14] = target: T1, Prostaglandin G/H synthase 1 (Ovis aries); test: Covalent inhibition of recombinant ovine COX1 using arachidonic acid as substrate assessed as reduction in PGE2 production preincubated with compound for 6 hrs followed by substrate addition for 10 mins and measured after 8 hrs of dialysis by LC-MS/MS analysis; settings: time 370.0 min
[15] = target: T1, Prostaglandin G/H synthase 1 (Ovis aries); test: Covalent inhibition of recombinant ovine COX1 using arachidonic acid as substrate assessed as reduction in PGE2 production at 40 uM preincubated with compound for […] followed by substrate addition and measured after 10 mins in the presence of AcSNAC by LC-MS/MS analysis; settings: time 370.0 min

SMILES | inhibition [1] | Ki [2] [µM] | Kinact [3] | Ratio [4] | Activity (A549) | also measured
C#CCNC(=O)c1ccccc1SC(C)=O | Tde | 15.2 | 2.5 10^-2/min | 2.4 10^-3/min/µM | – | –
CCCCCCNC(=O)c1ccccc1SC(C)=O | – | 33.9 | 2.1 10^-2/min | 0.65 10^-3/min/µM | – | IC50 [5]: 50 µM; IC50 [6]: 10 µM; inhibition [7]: Active; inhibition [8]: Tde; inhibition [9]: Active
CCCCC#CCNC(=O)c1ccccc1S | – | – | – | – | Non-Toxic | inhibition [10]: Active; inhibition [11]: 60%
CCCCC#CCNC(=O)c1ccccc1SC | – | – | – | – | – | inhibition [12]: 97%; Activity [13]: 83%
CCCCC#CCNC(=O)c1ccccc1SC(C)=O | Tde | 8.9 | 2.2 10^-2/min | 2.58 10^-3/min/µM | Non-Toxic | inhibition [14]: Active; inhibition [7]: Active
CCCCCCNC(=O)c1ccccc1S | – | – | – | – | – | inhibition [15]: Active; inhibition [9]: Active
CC(=O)Oc1ccccc1C(=O)O [ASPIRIN] | Tde | – | – | – | Non-Toxic | –
